The values below come from publication PMC10720709, “Design, synthesis, and evaluation of 4-(3-(3,5-dimethylisoxazol-4-yl)benzyl)phthalazin-1(2H)-one derivatives: potent BRD4 inhibitors with anti-breast cancer activity” (Frontiers in Pharmacology, 2023).

The subject of assay [1] is MCF-7 cells. In words: Comet assay (DNA damage). In kind it is cell-based. The following applies: MCF-7, 24 h. The method, then:
The comet assay was performed under alkaline conditions using the Comet Assay Kit (Beyotime, China) as per the manufacturer’s instructions. […] This mixture was spread onto microscope slides, which were then submerged in lysis solution for an hour. Electrophoresis was conducted in a horizontal apparatus at 25 V and 300 mA. Post-electrophoresis, slides were stained with PI for DNA visualization, and images were captured using a fluorescence inverted microscope.

The test system of a further assay is MDA-MB-468 cells. In words: MTT cell viability assay, MDA-MB-468. It is filed as cell-based. The following applies: Homo sapiens; MDA-MB-468, MTT, 72 h; read-out: Cytotoxicity IC50. The method, then: (§1) MDA-MB-468, MDA-MB-231, and MCF-7 cell lines were sourced from the National Collection of Authenticated Cell Culture, China. Cells were maintained in DMEM medium supplemented with 10% FBS and 1% penicillin/streptomycin, and incubated at 37°C in a humidified atmosphere containing 5% CO2.
(§2) The viability of cells was assessed using the MTT assay. Cells were seeded at a density of 3×10^3 cells per well in a 96-well plate and treated with varying concentrations (0.05, 0.2, 0.8, 3.2, 6.4, 12.8 µM) of the compounds for 72 h. Post-incubation, 100 µL of MTT solution (0.5 mg/mL) was added to each well and further incubated for 4 h. The resulting formazan crystals were dissolved in 150 µL DMSO, and the absorbance was measured at 570 nm using a microplate reader.
(Tetrazolium assays rely on reduction of a dye to a coloured formazan, in cell work by metabolically active cells.)

The subject of another assay is γ-H2AX in MCF-7 cells. In words: Western blot of γ-H2AX. In kind it is cell-based. The following applies: MCF-7, 24 h. The method, then:
(§3) Cells were then lysed using RIPA buffer supplemented with protease and phosphatase inhibitors. Protein concentrations were determined using the BCA Protein Assay Kit. Equal amounts of protein (20–30 µg) were separated by SDS-polyacrylamide gel electrophoresis and subsequently transferred to a polyvinylidene fluoride (PVDF) membrane. The membrane was blocked using 5% milk in PBS prior to incubation with primary antibodies. Primary antibodies against p-H2AX (Cell Signaling Technology™, US), c-MYC, and β-actin (Proteintech, US) were used. After overnight incubation at 4°C, membranes were washed and incubated with HRP-conjugated secondary antibodies for 1 h. Protein bands were visualized using ECL reagents.
(A western blot detects proteins with antibodies after separation by electrophoresis.)

Assay [2] deals with MCF-7 cells. In words: Cell cycle analysis (PI, flow cytometry). In kind it is cell-based. The following applies: for proportion of cells in G1 phase: 48 h; for effect on cell cycle (in words): MCF-7, 48 h. The method, then:
The cell cycle distribution was assessed using the DNA Content Quantitation Assay Kit (Solarbio, China). […] After treatment, cells were harvested, fixed in ice-cold 70% ethanol overnight at 4°C, and subsequently washed with PBS. Cells were then treated with 100 μL RNase at 37°C for 30 min and stained with 400 μL PI for 30 min at 4°C in the dark. The cell cycle distribution was analyzed using an Accuri C6 Plus flow cytometer (BD Bioscience, CA), and data interpretation was performed with FlowJo software.
For orientation: Flow cytometry measures light scatter and fluorescence of single cells or particles in a stream.

The target of another assay is PARP1 (Homo sapiens, UniProt P09874). In words: PARP1 enzymatic activity ELISA. It is filed as biochemical. Conditions: ELISA.
The subject of assay [3] is MCF-7 cells. In words: MTT cell viability assay, MCF-7. It is filed as cell-based. The following applies: Homo sapiens, MCF7; MCF-7, MTT, 72 h; read-out: Cytotoxicity IC50. The method, then: as §1, §2
Assay [4] has as its system MCF-7 cells. In words: Clonogenic (colony formation) assay. The following applies: MCF-7, 0.3, 1, 3 μM, 8 days. It is filed as cell-based. The method, then: MCF-7 cells were seeded in 6-well plates at a density of 500 cells/well and allowed to grow for 8 days to facilitate colony formation. After incubation, cells were washed with PBS, fixed in methanol for 15 min, and stained with 1% crystal violet for an hour. Colonies were then imaged and counted.

Another assay concerns MDA-MB-231 cells. In words: MTT cell viability assay, MDA-MB-231. In kind it is cell-based. Conditions: Homo sapiens; MDA-MB-231, MTT, 72 h; read-out: Cytotoxicity IC50. The method, then:
as §1, §2

The target of assay [5] is T1, recombinant BRD4 (BD1 + BD2) (Homo sapiens, UniProt O60885).
T1 construct: employing a recombinant BRD4 (BD1 + BD2) and its corresponding ligand
In words: BRD4 TR-FRET activity assay.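 Note: signal rises with BET ligand binding to the bromodomains, so inhibitors lower it, 120 min incubation at room temperature, 1% DMSO, wells lacking ligand as negative control.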 It is filed as binding.
Procedure: The BRD4 activity assay utilized TR-FRET technology, employing a recombinant BRD4 (BD1 + BD2) and its corresponding ligand. The TR-FRET signal generated in the assay is proportional to the ligand’s binding to the bromodomains. All reactions contained a final DMSO concentration of 1%. All binding reactions were conducted at room temperature. Each 20 µL reaction mixture, in assay buffer, comprised bromodomains, the BET Ligand, and the specified inhibitor amount. For the negative control, 5 µL of assay buffer replaced the BET ligand. After a 120-min incubation with the ligand, the TR-FRET signal was captured using a Tecan Infinite M1000 plate reader. IC50 values were determined through nonlinear regression with a normalized dose-response fit in Prism GraphPad software.

Assay [6] deals with MCF-7 cells. In words: Wound scratch cell migration assay. In kind it is cell-based. Conditions: MCF-7, wound scratch, 1 μM, 48 h. The method, then: MCF-7 cells were seeded in 6-well plates at a density of 5×10^5 cells/well and incubated overnight. A scratch was made in the cell monolayer using a 10 µL pipette tip. […] Images were captured at 0, 12, 24, and 48-h intervals.

Assay [7] concerns c-MYC expression in MCF-7 cells. In words: Western blot of c-MYC. It is filed as cell-based. The following applies: MCF-7, 24 h. The method, then:
as §3

A further assay has as its system BD1 domain of BRD4. The arrangement: method as in Hewings et al., 2013. The following applies: ref Hewings et al., 2013; read-out: IC50 against the BD1 domain of BRD4; cited from earlier work.

PARP1, sequence (P09874 whole entry): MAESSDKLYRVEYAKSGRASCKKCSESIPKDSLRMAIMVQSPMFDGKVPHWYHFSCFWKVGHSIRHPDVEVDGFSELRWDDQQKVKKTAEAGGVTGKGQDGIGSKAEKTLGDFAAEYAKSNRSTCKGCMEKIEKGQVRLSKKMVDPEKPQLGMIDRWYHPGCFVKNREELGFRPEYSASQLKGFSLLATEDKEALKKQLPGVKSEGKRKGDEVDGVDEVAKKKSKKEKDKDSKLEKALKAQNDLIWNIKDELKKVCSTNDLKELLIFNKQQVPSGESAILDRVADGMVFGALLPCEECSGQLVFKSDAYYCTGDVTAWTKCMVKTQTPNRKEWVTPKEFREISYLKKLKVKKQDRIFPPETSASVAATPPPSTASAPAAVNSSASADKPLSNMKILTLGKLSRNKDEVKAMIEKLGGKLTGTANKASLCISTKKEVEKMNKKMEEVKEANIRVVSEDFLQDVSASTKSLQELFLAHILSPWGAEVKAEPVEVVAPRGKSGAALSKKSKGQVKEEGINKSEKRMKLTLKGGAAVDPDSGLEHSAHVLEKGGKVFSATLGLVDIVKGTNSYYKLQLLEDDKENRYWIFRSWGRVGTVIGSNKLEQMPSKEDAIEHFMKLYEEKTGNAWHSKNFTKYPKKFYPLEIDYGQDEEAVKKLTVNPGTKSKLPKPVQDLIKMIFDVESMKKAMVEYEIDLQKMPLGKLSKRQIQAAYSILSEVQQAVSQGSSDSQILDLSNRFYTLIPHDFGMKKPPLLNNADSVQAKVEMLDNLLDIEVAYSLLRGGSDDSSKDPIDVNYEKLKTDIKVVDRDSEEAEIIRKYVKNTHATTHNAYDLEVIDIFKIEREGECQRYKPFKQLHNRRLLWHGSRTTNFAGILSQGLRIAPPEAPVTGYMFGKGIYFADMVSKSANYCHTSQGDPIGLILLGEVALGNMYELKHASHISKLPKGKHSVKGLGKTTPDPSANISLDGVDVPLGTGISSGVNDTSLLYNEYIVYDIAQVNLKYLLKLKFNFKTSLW
Procedure for PARP1: The inhibition of PARP1 enzymatic activity by the tested compounds was gauged using an ELISA in 96-well plates. Each well was pre-coated with histone (20 μg/mL) in 100 μL of PBS buffer and incubated overnight at 4 °C. […] This was followed by the addition of 5 μL of either the compound at varying concentrations or a solvent control. The reaction was initiated by adding 20 μL of PARP (50 ng/well) and incubating at 30°C for 1 h. Post-reaction, 50 µL of streptavidin-conjugated HRP was introduced, and the assay continued at 30°C for an additional 30 min. Finally, 100 μL of a solution containing H2O2 and luminol in 0.1 M citrate buffer (pH 5.4) was added, and the luminescent signal was recorded using a Molecular Devices SpectraMax M5 microplate reader.

What is called IC50 is the concentration needed to halve the response being measured. In general, inhibition refers to the relative decrease from the control value, in per cent. As for `Cc1noc(C)c1-c1cc(Cc2n[nH]c(=O)c3ccccc23)cc(NC(=O)c2ccccc2C(F)(F)F)c1` [DDT26], the “DNA damage (comet assay, in words)” value with MCF-7 cells [1] is recorded as “induced DNA damage in MCF-7 cells in a dose-dependent manner”. Moreover, the IC50 is 3.96 µM in the assay on MDA-MB-468 cells; 4.29 ± 1.81 µM against PARP1; 4.9 µM with MCF-7 cells [3]; 7.55 µM with MDA-MB-231 cells; 0.237 ± 0.093 µM in [5] (TR-FRET, BRD4 (BD1 + BD2)). Also, the “γ-H2AX level (Western blot)” value in the assay on γ-H2AX in MCF-7 cells is on record as “induced the accumulation of γ-H2AX in MCF-7 cells in a concentration-dependent fashion”. For the same compound, the “proportion of cells in G1 phase” value in the assay with MCF-7 cells [2] (MCF-7, 0.3 μM) came to 53.8%; with MCF-7 cells [2] (MCF-7, 1 μM), 59.8%; with MCF-7 cells [2] (MCF-7, 3 μM), 64.5%. In addition, the “effect on cell cycle (in words)” value in the assay on MCF-7 cells [2] is reported as “dose-dependent G1 phase cell cycle arrest”. The “colony formation (in words)” value with MCF-7 cells [4] is “inhibited colony formation in MCF-7 cells in a dose-dependent manner”. Further, in [5] (1 μmol/L, read-out: BRD4 inhibition rate), the inhibition at 1 µM was 85%. Also, the “inhibition of cell migration (in words)” value in the assay on MCF-7 cells [6] is “slightly less pronounced”. Besides, the “expression of c-MYC (Western blot)” value in [7] is reported as “downregulate the expression of c-MYC in MCF-7 cells in a concentration-dependent manner”.

With `O=C(c1cc(Cc2n[nH]c(=O)c3ccccc23)ccc1F)N1CCN(C(=O)C2CC2)CC1` [Olaparib, reference compound], the IC50 in the assay with MDA-MB-468 cells came out at 8.09 µM; with MCF-7 cells [3], 8.7 µM; with MDA-MB-231 cells, 8.17 µM. For the same compound, the “effect on cell cycle (in words)” value in the assay on MCF-7 cells [2] is “did not influence the MCF-7 cell cycle”. In the assay with MCF-7 cells [6], the “inhibition of cell migration (in words)” value is listed as “no inhibitory activity”.

As for `Cc1noc(C)c1-c1cc(O)cc(C(=O)c2ccccc2)c1` [Compound 7], the half-inhibitory concentration (IC50) with BD1 domain of BRD4 is 0.544 µM.
